Consider twelve compounds from ChEMBL document CHEMBL5365507, “New Horizons in Cancer Treatment: A Closer Look at Novel PI3Kα Inhibitors” (ACS Med Chem Lett, 2023).

A value given as a limit tells only on which side of the number the result lay.

For assay [1], the target named is T1, Phosphatidylinositol 4,5-bisphosphate 3-kinase catalytic subunit alpha isoform (Homo sapiens, UniProt P42336). Put plainly: Inhibition of PIK3CA (unknown origin) using diC8-PIP2 as substrate preincubated for 30 mins followed by substrate addition and measured after 60 mins by ADP-Glo assay. On the technique in general: ADP-Glo turns the ADP formed in a reaction into a luminescent signal.

In assay [2] the target is T1, Phosphatidylinositol 4,5-bisphosphate 3-kinase catalytic subunit alpha isoform. Kind of assay: Inhibition of PIK3CA (unknown origin) expressed in MCF-10A cells incubated for 2 hrs by HTRF method. Format: cell-based. On the technique in general: Time-resolved FRET reads energy transfer from a long-lived donor to a nearby acceptor.

T1 sequence (P42336 whole entry, canonical isoform): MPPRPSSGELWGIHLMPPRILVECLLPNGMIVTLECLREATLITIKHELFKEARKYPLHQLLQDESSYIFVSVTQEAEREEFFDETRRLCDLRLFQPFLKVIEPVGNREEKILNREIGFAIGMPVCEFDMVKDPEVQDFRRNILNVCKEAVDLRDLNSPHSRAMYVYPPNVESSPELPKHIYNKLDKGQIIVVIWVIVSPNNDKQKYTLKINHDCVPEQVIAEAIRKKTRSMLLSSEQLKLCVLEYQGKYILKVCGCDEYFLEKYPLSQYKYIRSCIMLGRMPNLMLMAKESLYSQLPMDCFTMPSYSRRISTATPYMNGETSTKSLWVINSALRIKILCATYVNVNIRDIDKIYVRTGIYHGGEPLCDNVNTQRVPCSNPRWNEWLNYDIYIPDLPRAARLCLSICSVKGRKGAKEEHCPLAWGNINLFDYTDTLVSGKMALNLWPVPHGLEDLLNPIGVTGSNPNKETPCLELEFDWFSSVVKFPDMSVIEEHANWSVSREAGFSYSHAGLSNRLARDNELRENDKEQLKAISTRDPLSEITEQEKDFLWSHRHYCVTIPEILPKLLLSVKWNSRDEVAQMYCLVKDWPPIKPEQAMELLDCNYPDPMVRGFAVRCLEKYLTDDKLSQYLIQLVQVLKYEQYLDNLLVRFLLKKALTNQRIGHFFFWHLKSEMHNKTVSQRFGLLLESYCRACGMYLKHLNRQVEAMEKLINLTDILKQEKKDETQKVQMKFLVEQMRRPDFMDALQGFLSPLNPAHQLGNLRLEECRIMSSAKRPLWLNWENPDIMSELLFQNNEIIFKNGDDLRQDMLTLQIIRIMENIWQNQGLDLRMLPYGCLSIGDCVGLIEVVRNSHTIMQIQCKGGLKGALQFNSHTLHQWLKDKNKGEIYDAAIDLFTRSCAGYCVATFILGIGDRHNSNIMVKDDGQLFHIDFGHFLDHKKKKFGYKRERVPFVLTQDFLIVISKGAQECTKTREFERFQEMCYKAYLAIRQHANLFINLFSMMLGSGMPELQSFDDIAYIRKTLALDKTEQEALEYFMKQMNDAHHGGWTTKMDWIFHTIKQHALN

As for `Cc1ccccc1Nc1ncc(C(=O)NCC2CC(F)(F)C2)cc1NC(=O)c1cc(F)cc(C(F)(F)F)c1`, the concentration for half-maximal inhibition (IC50) turned out to be 100 nM in assay [1] and 1000 nM in assay [2].

Turning to `Cc1ccccc1Nc1ncc(C(=O)NCc2nccs2)cc1NC(=O)c1csc2ccccc12`, the IC50 in assay [1] is at most 100 nM; in assay [2], 5000 nM.

For `Cc1ccccc1Nc1ncc(C(=O)NC2CS(=O)(=O)C2)cc1NC(=O)c1csc2ccccc12`, the half-inhibitory concentration (IC50) in assay [1] was at most 100 nM; in assay [2] it was 1000 nM.

Turning to `Cc1ccccc1Nc1ncc(C(=O)NCc2ccc(Cl)cc2)cc1NC(=O)c1csc2ccccc12`, the IC50 is 100 nM in assay [1] and 1000 nM in assay [2].

For the compound `Cc1ccccc1Nc1ncc(C(=O)Nc2ccncc2)cc1NC(=O)c1cc(F)cc(C(F)(F)F)c1`, the IC50 was 100 nM in assay [1] and at most 1000 nM in assay [2].

Regarding `Cc1ccccc1Nc1ncc(C(=O)NC2CC(F)(F)C2)cc1NC(=O)c1cc(F)cc(C(F)(F)F)c1`, the figures for the concentration for half-maximal inhibition (IC50) in assay [1] and in assay [2] were 100 nM and 1000 nM, respectively.

Take `Cc1ccccc1Nc1ncc(C(=O)NCc2ccnn2C)cc1NC(=O)c1cc(F)cc(C(F)(F)F)c1`: the IC50 in assay [1] is 100 nM; in assay [2], 1000 nM.

Regarding `Cc1ccccc1Nc1ncc(C(=O)NCc2ccnn2C)cc1NC(=O)c1csc2ccccc12`, the figures for the IC50 in assay [1] and in assay [2] were 100 nM and 1000 nM, respectively.

In the case of `Cc1ccccc1Nc1ncc(C(=O)NCc2ccn(C)n2)cc1NC(=O)c1cc(F)cc(C(F)(F)F)c1`, the IC50 in assay [1] was found to be 100 nM; in assay [2] it was 1000 nM.

Consider `Cc1ccccc1Nc1ncc(-c2cncc(C#N)c2)cc1NC(=O)c1cc(F)cc(C(F)(F)F)c1`, for which the results for the IC50 in assay [1] and in assay [2] were 100 nM and 1000 nM, respectively.

Regarding `Cc1ccccc1Nc1ncc(C(=O)NC2CS(=O)(=O)C2)cc1NC(=O)c1cc(F)cc(C(F)(F)F)c1`, the concentration for half-maximal inhibition (IC50) in assay [1] was at most 100 nM; in assay [2], at most 1000 nM.

Take `Cc1ccccc1Nc1ncc(C(=O)NC2C[S+]([O-])C2)cc1NC(=O)c1csc2ccccc12` (centres undefined): the IC50 was at most 100 nM in assay [1] and 1000 nM in assay [2].

One may read the IC50 as the concentration needed to halve the response being measured. Lower therefore signals higher potency.
